Legend:
[1] = test system: B. kaoi adventitious roots; assay: Measurement of H2O2 in adventitious roots; format: cell-based, Bupleurum kaoi; details: 500 μM MeJA; during 5 weeks culture
Description: To test whether MeJA caused oxidative stress, the H2O2 level was measured as described below. H2O2 was extracted by homogenizing 0.3 to 0.5 g of adventitious roots with 3 ml phosphate buffer (50 mM, pH6.8) and centrifuged at 6000×g for 25 min. A 2 ml extract was mixed with 1 ml 0.1% titanium sulfate in 20% H2SO4 (v/v), and centrifuged at 6000×g for 15 min. The optical density of the supernatant was measured at 410 nm using an equal volume of phosphate buffer as a blank. […] The MDA level was colorimetrically measured as described below. MDA was extracted by homogenizing 0.3 to 0.5 g adventitious roots with 2 ml 5% trichloroacetic acid, and centrifuged at 10,000×g for 5 min at 20° C. A mixture of 1 ml supernatant with 4 ml 0.5% thiobarbituric acid in 20% trichloroacetic acid was heated in a 95° C. water bath for 30 min and centrifuged for 10 min at 2000×g to remove haziness. Optical density of the supernatant was measured at 532 nm and 600 nm using 1 ml 5% trichloroacetic acid to replace supernatant as a blank.

[2] = test system: B. kaoi adventitious roots; assay: cDNA microarray of MeJA-responsive genes in adventitious roots; format: cell-based, Bupleurum kaoi; details: 500 μM MeJA; microarray analysis
Description: Adventitious root cultures were induced from the roots of germ-free seedlings of B. kaoi and were subcultured every 6 weeks by adding 0.2 g roots to a 125 ml flask containing 50 ml of B5 liquid medium supplemented with 2 mg 1^−1 NAA. Cultures were shaken using a rotary shaker at 100 rpm at 25° C. in the dark. To quantify the effect of MeJA on saikosaponin level, adventitious roots were treated with 500 and 1000 μM MeJA 2 weeks after subculture. Total saikosaponin was measured 2 weeks after MeJA treatment. To monitor expression of MeJA-responsive genes, the nutrient medium was refreshed 4 weeks after subculture and MeJA (500 μM) was applied 2 weeks after refreshment. Roots were harvested at 13 time points (5 min; 1, 2, 8, 24 hours; 2, 4, 6, 8 days; 2, 3, 4, 5 weeks) after the addition of the MeJA. […]
The DNA microarray data were imported into GeneSpring 7.2 (Silicon Genetics) for further analyses. […] The coefficient of variation was calculated by dividing the standard deviation by the mean. Net intensities of both channels were calculated by subtraction of the median fluorescent intensity of the background from the mean fluorescent intensity of each feature. […] Fold change was calculated for each gene by dividing the average intensity of MeJA-treated samples by the average intensity of the corresponding control samples. […]

[3] = test system: B. kaoi adventitious roots; assay: Effect of MeJA on saikosaponin production in adventitious roots (HPLC); format: cell-based, Bupleurum kaoi; details: for Increase of total saikosaponins: 2 weeks after treatment, P<0.05; for Saikosaponin: measured 14 days after MeJA treatment, mean ± S.E., n=3
Description: Adventitious root cultures were induced from the roots of germ-free seedlings of B. kaoi and were subcultured every 6 weeks by adding 0.2 g roots to a 125 ml flask containing 50 ml of B5 liquid medium supplemented with 2 mg 1^−1 NAA. Cultures were shaken using a rotary shaker at 100 rpm at 25° C. in the dark. To quantify the effect of MeJA on saikosaponin level, adventitious roots were treated with 500 and 1000 μM MeJA 2 weeks after subculture. Total saikosaponin was measured 2 weeks after MeJA treatment. To monitor expression of MeJA-responsive genes, the nutrient medium was refreshed 4 weeks after subculture and MeJA (500 μM) was applied 2 weeks after refreshment. Roots were harvested at 13 time points (5 min; 1, 2, 8, 24 hours; 2, 4, 6, 8 days; 2, 3, 4, 5 weeks) after the addition of the MeJA. The saikosaponins level was measured according to Li et al. (Li X. Q. et al., Biol. Pharm. Bull. 28 (2005) 1736-1742) with some modifications. Freeze-dried adventitious roots were ground into a fine powder and extracted with 70% methanol at a ratio of 10:1 (v/w) at 25° C. with gentle shaking for 24 h. After centrifugation at 10,000×g for 10 min, the supernatant was filtered through a 0.45 μm filter. The amount of total saikosaponins (saikosaponin-a, saikosaponin-c, and saikosaponin-d) in each extract was quantified using a high performance liquid chromatograph (HPLC) (Waters 600 controller autoinjector) with a C18 Inertsil 5 ODS-2 column (4.6 mm×250 mm) and a mobile phase of 45% acetonitrile/55% H2O. The flow rate was 1 ml min^−1, the injection volume was 20 μl, and the eluent was monitored at 210 nm using a Waters 996 photodiode array detector.

[4] = test system: cell suspension cultures of Medicago truncatula; details: 5 μM MeJA for 2 h; cited from earlier work

Structure (SMILES): CC/C=C\CC1C(=O)CCC1CC(=O)OC (stereo not shown) [MeJA, Methyl jasmonate]
- H2O2 levels in the adventitious roots [1]: did not significantly change
- Two BkP450 genes (AM421810, AM421812) increase [2]: 2 fold
- Increase of total saikosaponins ([3]; 500 μM MeJA): 38 fold
- Increase of total saikosaponins ([3]; 1000 μM MeJA): 21 fold
- Saikosaponin ([3]; MeJA 500 μM): 63.60 ± 20.46 μg g^−1 of dry wt
- Saikosaponin ([3]; MeJA 1000 μM): 39.73 ± 13.25 μg g^−1 of dry wt
- PAL transcripts induction [4]: 3 fold

Reference: US8222487B2, “Application of ERF genes from Bupleurum kaoi” (National Tsing Hua University, priority 2009, dated 2012)
